Experimental data reported in US11938121B2, “Treatment of infections and biofilm formation using a cellulose synthase inhibitor” (Purdue Research Foundation, priority 2020, dated 2024).

Biological target: T1, YFP-AtCESA6 (Arabidopsis thaliana, UniProt Q94JQ6)
T1 construct: expressed in transfected cells; host or cells: transgenic Arabidopsis thaliana YFP-AtCESA6 seedlings (total protein extract for DARTS; root epidermal cells for imaging)
T1 sequence (Q94JQ6 1-1084): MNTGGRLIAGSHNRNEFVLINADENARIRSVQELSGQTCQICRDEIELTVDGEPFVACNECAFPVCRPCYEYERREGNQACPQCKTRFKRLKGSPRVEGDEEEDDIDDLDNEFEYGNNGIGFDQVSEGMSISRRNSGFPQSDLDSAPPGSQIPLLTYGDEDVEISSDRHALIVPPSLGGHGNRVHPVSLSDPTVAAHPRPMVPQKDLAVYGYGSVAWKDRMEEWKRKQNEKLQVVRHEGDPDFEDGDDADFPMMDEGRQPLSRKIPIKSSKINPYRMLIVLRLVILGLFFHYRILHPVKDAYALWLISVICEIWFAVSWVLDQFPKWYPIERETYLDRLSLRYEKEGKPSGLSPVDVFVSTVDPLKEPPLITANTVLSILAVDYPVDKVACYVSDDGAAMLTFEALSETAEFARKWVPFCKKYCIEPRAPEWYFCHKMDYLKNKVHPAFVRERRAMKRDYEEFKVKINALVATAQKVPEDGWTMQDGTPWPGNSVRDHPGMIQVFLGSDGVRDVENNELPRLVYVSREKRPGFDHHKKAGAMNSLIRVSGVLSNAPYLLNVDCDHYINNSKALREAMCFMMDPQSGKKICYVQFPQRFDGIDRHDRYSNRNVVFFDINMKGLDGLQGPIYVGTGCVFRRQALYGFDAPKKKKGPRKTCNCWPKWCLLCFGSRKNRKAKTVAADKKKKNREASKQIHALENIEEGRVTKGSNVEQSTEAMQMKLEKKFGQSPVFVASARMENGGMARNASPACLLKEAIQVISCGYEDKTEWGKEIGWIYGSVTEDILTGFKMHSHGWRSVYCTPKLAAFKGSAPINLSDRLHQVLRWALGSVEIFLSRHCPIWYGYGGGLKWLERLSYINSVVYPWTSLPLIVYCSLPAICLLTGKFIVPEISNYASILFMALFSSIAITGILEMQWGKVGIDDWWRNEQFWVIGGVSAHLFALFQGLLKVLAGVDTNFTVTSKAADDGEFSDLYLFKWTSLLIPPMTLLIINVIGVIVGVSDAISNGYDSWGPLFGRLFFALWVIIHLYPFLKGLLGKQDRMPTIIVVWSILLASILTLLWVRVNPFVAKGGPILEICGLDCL
T1 sequence (O48946 1-1081 partner): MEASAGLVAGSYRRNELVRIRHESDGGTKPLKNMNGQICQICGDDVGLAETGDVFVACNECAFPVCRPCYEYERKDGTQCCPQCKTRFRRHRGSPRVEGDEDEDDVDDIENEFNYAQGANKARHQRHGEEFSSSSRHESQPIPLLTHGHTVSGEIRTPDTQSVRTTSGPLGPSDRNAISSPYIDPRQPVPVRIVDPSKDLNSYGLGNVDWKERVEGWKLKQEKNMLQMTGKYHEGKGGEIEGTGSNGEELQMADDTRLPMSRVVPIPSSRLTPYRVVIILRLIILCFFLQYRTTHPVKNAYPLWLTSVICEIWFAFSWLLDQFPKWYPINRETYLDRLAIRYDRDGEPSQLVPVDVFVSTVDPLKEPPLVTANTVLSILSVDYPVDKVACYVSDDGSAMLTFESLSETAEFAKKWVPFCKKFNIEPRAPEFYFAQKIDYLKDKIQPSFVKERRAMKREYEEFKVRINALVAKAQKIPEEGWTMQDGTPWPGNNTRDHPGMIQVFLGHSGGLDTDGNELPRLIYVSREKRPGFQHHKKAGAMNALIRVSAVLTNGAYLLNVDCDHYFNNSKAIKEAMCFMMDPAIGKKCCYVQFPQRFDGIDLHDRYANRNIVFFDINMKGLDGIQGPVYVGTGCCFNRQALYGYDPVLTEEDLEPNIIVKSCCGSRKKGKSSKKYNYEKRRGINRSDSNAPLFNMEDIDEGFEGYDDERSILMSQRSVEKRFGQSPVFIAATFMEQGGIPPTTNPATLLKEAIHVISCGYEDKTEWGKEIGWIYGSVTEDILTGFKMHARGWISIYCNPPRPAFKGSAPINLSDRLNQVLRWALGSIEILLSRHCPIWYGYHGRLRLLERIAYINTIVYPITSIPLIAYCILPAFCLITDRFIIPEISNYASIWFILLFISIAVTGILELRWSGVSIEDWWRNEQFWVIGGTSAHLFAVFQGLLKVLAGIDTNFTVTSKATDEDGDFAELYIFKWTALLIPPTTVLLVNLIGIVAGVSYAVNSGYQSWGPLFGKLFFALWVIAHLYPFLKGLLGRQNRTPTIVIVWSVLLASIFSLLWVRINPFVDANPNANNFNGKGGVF
T1 sequence (Q941L0 1-1065 partner): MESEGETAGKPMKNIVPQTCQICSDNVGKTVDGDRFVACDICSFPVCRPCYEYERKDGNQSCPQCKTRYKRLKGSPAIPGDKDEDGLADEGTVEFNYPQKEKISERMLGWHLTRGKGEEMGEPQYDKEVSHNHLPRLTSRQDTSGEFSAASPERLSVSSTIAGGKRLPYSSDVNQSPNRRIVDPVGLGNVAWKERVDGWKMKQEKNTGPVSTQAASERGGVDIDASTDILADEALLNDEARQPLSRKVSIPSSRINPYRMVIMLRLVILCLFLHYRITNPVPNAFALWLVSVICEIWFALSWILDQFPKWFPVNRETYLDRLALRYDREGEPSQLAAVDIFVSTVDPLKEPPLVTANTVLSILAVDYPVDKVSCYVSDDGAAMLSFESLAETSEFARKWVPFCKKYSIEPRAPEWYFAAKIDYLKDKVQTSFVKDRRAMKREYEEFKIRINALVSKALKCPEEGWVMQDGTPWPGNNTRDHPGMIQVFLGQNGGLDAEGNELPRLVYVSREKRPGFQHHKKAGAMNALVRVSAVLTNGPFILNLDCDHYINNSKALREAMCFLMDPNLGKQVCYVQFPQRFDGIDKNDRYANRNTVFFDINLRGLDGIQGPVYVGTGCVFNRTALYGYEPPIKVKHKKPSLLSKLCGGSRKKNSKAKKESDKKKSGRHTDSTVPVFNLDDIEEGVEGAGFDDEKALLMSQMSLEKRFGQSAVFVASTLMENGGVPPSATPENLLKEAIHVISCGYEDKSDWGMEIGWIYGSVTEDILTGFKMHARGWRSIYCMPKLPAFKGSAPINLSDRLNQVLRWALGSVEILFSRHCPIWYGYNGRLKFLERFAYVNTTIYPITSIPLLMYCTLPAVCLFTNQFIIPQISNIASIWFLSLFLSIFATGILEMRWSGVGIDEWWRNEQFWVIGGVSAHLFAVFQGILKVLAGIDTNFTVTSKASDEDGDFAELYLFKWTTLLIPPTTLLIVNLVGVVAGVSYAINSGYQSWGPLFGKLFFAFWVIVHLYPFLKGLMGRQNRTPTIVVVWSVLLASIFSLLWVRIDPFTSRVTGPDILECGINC
Assay: DARTS assay
Type: binding
Settings: total protein from YFP-AtCESA6 seedlings, vs DMSO
Procedure: To further validate that ES20-1 targets AtCESA6, we looked for a direct interaction between ES20-1 and AtCESA6. We performed a DARTS (Drug Affinity Responsive Target Stability) assay to test the interaction of ES20-1 with endogenous AtCESA6. We incubated total protein from YFP-AtCESA6 seedlings with either DMSO (as a control) or ES20-1 and digested the mixtures with protease. […] We also purified the central cytosolic domain of AtCESA6 (CESA6c) from E. coli (FIG. 3J) and performed a Microscale thermophoresis (MST) assay to test its interaction with ES20-1. […] We purified AtCESA6 central cytoplasmic domain carrying missense mutation P595S (CESA6c^P595S) and tested its interaction with ES20 and ES20-1 (3O).
To test for an interaction between AtCESA6 and ES20-1 using a DARTS assay, 7-day-old YFP-AtCESA6 light-grown seedlings were harvested and ground to a powder in liquid nitrogen. The ground tissue was homogenized in lysis buffer (50 mM Tris-HCl, pH 7.5, 150 mM NaCl, 0.5% Triton X-100, 2 mM DTT, one tablet/50 mL EDTA free Pierce protease inhibitor [Thermo Fisher]) at 2:1 ratio (2 mL buffer: 1 g tissue). […] The X-ray films were scanned, and the signal intensity of each protein band was quantified after background subtraction using Image J. The relative intensities were quantified by dividing the values in ES20-1-treated samples by the values in DMSO-treated samples.

Cc1ccccc1C(=O)NNC(=S)NC(=O)c1ccccc1 [ES20-1]
interaction with endogenous AtCESA6 (protection from protease): interacts with endogenous AtCESA6 and protects it from degradation
